{
  "source": "patent US20240103005A1",
  "about": "“N-ACRYLOYLINDOLES AND METHODS OF USE” (The University of Hong Kong, priority 2022, published 2024)",
  "tested_on": "HepG2 cell lysates",
  "test": "MS-based ABPP to identify liganded cysteines in HepG2 cell lysates",
  "format": "biochemical, human",
  "settings": "10 μM, 1 h",
  "protocol": "MS-Based ABPP Experiments to Identify Liganded Cysteines in HepG2 Cell Lysates by NAIA-5 or IAA.\nHepG2 cells were lysed in PBS by sonication. After BCA assay and protein normalization, HepG2 cell lysates in PBS (2 mg/mL, 2 mL) were incubated with NAIA-5 and IAA (10 μM), respectively, at room temperature for 1 h with vortexing. Then, the samples were incubated with a master mix solution for CuAAC reaction, containing CuSO4, TBTA, DTB-PEG-azide and TECP (final concentrations are 1 mM, 100 μM, 100 μM and 1 mM respectively). After incubation at room temperature for 1 h with vortexing, pre-chilled acetone (12 mL) was added to the samples and proteins were allowed to precipitate out by storing at −20° C. overnight. The samples were centrifuged at 5,000 g at 4° C. for 10 min, and the supernatant was discarded. The protein pellets labeled by NAIA-5 and IAA were then combined and washed with pre-chilled methanol twice. The protein pellets were then re-dispersed in 1.2% SDS in PBS (w/v), followed by heating at 80° C. for 5 min. Any insoluble solids were discarded by centrifugation at 6,500 g for 5 min, and the supernatant were transferred to PBS solution containing Pierce™ Streptavidin Agarose beads (20349; Thermo Scientific) with final concentration of SDS equal to 0.2% (w/v). The samples and beads were incubated at 4° C. with rotation overnight. […]",
  "data": [
    {"compound": "C#CCCCCNC(=O)COc1ccc2c(ccn2C(=O)C=C)c1", "note": "[NAIA-5]", "values": [
      {"measurement": "off-target labeling onto other amino acids", "result": "less undesired off-target labeling onto other amino acids as compared to IAA"}
    ]}
  ]
}
